Among the test systems are A549 NSCLC; EKVX NSCLC; HCT-116 colon; IGROV1 ovarian; K-562 leukemia; SNB-75 CNS; UO-31 renal; CCRF-CEM leukemia; M14 melanoma; NCI-H460 lung.
Assay in all cases: NCI anticancer screen, dose series, 48 h

In PubChem BioAssay (NCI) one finds TGI and GI50 data, which are given here for 13 compounds.

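Compound exposure: 48 hours, 5 concentrations, 96-well plates. At the GI50, growth is halved. TGI marks complete inhibition of growth.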

For `O=c1c2ccccc2c2nc3ccccc3nc2n1C1CCCCC1`, the TGI in the assay on A549 NSCLC, with EKVX NSCLC, with HCT-116 colon, in the assay on IGROV1 ovarian, with K-562 leukemia and with SNB-75 CNS was > 100 µM each time. Moreover, in the assay with UO-31 renal, the TGI is > 100 µM.
Consider `Nc1ccc(/C=N/Nc2ccnc3c(N)cccc23)c2cccnc12`, for which the GI50 with A549 NSCLC was 1.68 µM; with CCRF-CEM leukemia, 0.316 µM; in the assay on EKVX NSCLC, 1.63 µM; with HCT-116 colon, 0.401 µM; in the assay with M14 melanoma it was 1.87 µM; in the assay on SNB-75 CNS it was 1.74 µM. The TGI amounted to 3.24 µM with A549 NSCLC; 2.31 µM with CCRF-CEM leukemia; 3.34 µM in the assay with EKVX NSCLC; 1.85 µM with HCT-116 colon; 3.49 µM in the assay on M14 melanoma; 3.35 µM in the assay on SNB-75 CNS.
For `NC(=S)N/N=C1/C(=O)N(c2ccc(Cl)cc2Cl)C(=O)C(=O)C1c1nc2ccccc2s1` (configuration not stated), the TGI with EKVX NSCLC, in the assay with HCT-116 colon, in the assay with IGROV1 ovarian, with K-562 leukemia, in the assay with M14 melanoma and in the assay with NCI-H460 lung was > 100 µM throughout. The TGI with SNB-75 CNS and with UO-31 renal was > 100 µM throughout.
Turning to `COc1ccc(/C=C/c2n[nH]c3ccc(N4CCOC4=O)cc23)cc1`, the GI50 is 1.66 µM in the assay on A549 NSCLC; 3.39 µM in the assay on EKVX NSCLC; 0.693 µM in the assay on HCT-116 colon; 2.53 µM in the assay with IGROV1 ovarian; 2.54 µM in the assay on K-562 leukemia; 1.88 µM with M14 melanoma. The GI50 with NCI-H460 lung was 1.95 µM; with SNB-75 CNS, 2.5 µM; in the assay with UO-31 renal it was 2.52 µM. Also, the TGI was 14.2 µM in the assay with A549 NSCLC; 36.1 µM with EKVX NSCLC; 13.6 µM with HCT-116 colon; > 100 µM in the assay on IGROV1 ovarian; > 100 µM with K-562 leukemia; 10.5 µM with M14 melanoma. Further, the TGI was found to be 11.8 µM in the assay on NCI-H460 lung, 18 µM in the assay on SNB-75 CNS and 9.92 µM in the assay with UO-31 renal.
As for `COc1ccc(/C=C2\CCC(C)(CN(C)C)C2=O)cc1` (configuration not stated), the TGI with A549 NSCLC, with EKVX NSCLC, in the assay with HCT-116 colon, in the assay with IGROV1 ovarian, in the assay on K-562 leukemia and in the assay with M14 melanoma was > 100 µM each time. The TGI with NCI-H460 lung, with SNB-75 CNS and with UO-31 renal was > 100 µM in each case.
Regarding `COc1ccc(/C(C)=N/OC(=O)c2c(-c3ccccc3Cl)noc2C)cc1CN1CCOCC1`, the TGI in the assay with A549 NSCLC is 50.9 µM; in the assay with CCRF-CEM leukemia, > 100 µM; with HCT-116 colon, 36.5 µM; with IGROV1 ovarian, 65.6 µM; in the assay with K-562 leukemia, > 100 µM; in the assay on M14 melanoma, 28 µM. Moreover, the values for the TGI in the assay on NCI-H460 lung, in the assay on SNB-75 CNS and with UO-31 renal were > 100 µM, 94 µM and 22.3 µM, respectively.
For `COc1ccc2nc3ccccc3c(NCCCCCCN(C)CCCl)c2c1`, the TGI came to 3.34 µM in the assay with A549 NSCLC; 0.348 µM with CCRF-CEM leukemia; 3.45 µM with EKVX NSCLC; 1.22 µM in the assay on HCT-116 colon; 2.3 µM in the assay on M14 melanoma; 1.46 µM in the assay with NCI-H460 lung. In addition, the TGI with SNB-75 CNS came out at 2.73 µM.
`COc1ccc2c(c1)OC[C@@H]1c3cc4c(cc3O[C@H]21)OCO4`: the TGI with A549 NSCLC, in the assay with CCRF-CEM leukemia, in the assay with EKVX NSCLC, in the assay on HCT-116 colon, in the assay with K-562 leukemia and with M14 melanoma was > 100 µM throughout. For the same compound, the TGI is > 100 µM in the assay with NCI-H460 lung, 69.2 µM in the assay with SNB-75 CNS and > 100 µM with UO-31 renal.
Turning to `O=C(NO)C12C3C4C1C1C2C3C41C(=O)NO` (configuration not stated), the TGI with A549 NSCLC, in the assay on CCRF-CEM leukemia, in the assay on EKVX NSCLC, in the assay with HCT-116 colon, in the assay on K-562 leukemia and in the assay with M14 melanoma was > 100 µM throughout. In addition, the TGI in the assay on NCI-H460 lung, in the assay with SNB-75 CNS and in the assay on UO-31 renal was > 100 µM throughout.
Take `COC(=O)[C@]1(C)CCC[C@@]2(C)C1CCC1=CC3(C(C)C)CCC12OO3` (some centres not stated): the TGI in the assay on A549 NSCLC, with CCRF-CEM leukemia, in the assay on EKVX NSCLC, with HCT-116 colon, with IGROV1 ovarian and with K-562 leukemia was > 100 µM throughout. The TGI with M14 melanoma, in the assay with NCI-H460 lung and in the assay with UO-31 renal was > 100 µM throughout.
For `CCCc1nc2c(C)cc(-c3nc4ccccc4n3C)cc2n1Cc1ccc(-c2ccccc2C(=O)O)cc1`, the GI50 in the assay with A549 NSCLC was 22.8 µM; with CCRF-CEM leukemia it was 22.7 µM; in the assay with HCT-116 colon, 43.4 µM; in the assay with IGROV1 ovarian it was 43.5 µM; in the assay with K-562 leukemia, 23.2 µM; in the assay on M14 melanoma, 34.5 µM. In addition, the GI50 was 32.5 µM in the assay with NCI-H460 lung, 56 µM with SNB-75 CNS and 19.3 µM in the assay with UO-31 renal. In addition, the TGI in the assay on A549 NSCLC, in the assay on CCRF-CEM leukemia, with HCT-116 colon, in the assay on IGROV1 ovarian, with K-562 leukemia and with M14 melanoma was > 100 µM in each case. In addition, the TGI in the assay with NCI-H460 lung is > 100 µM; in the assay with SNB-75 CNS, > 100 µM; in the assay on UO-31 renal, 51.5 µM.
`Cc1ccc(C)c(-c2csc(Nc3ccc(C)c(C)c3)n2)c1`: the GI50 is > 100 µM with A549 NSCLC; > 100 µM with CCRF-CEM leukemia; > 100 µM in the assay on HCT-116 colon; 62.8 µM with IGROV1 ovarian; > 100 µM in the assay with K-562 leukemia; 15.8 µM in the assay on SNB-75 CNS. Moreover, the GI50 with UO-31 renal was > 100 µM. Besides, the TGI with A549 NSCLC is > 100 µM; in the assay on CCRF-CEM leukemia, > 100 µM; in the assay on HCT-116 colon, > 100 µM; in the assay on IGROV1 ovarian it was > 100 µM; with K-562 leukemia it was > 100 µM; with SNB-75 CNS, 53.2 µM. Moreover, in the assay on UO-31 renal, the TGI is > 100 µM.
On to `COc1ccc([N+](=O)[O-])c(S(=O)(=O)c2ccc(Cl)cc2)n1`, for which the GI50 in the assay on A549 NSCLC is 18.5 µM; with CCRF-CEM leukemia, 2.93 µM; with HCT-116 colon, 2.9 µM; with IGROV1 ovarian, 12.2 µM; with K-562 leukemia, 3.02 µM; in the assay with M14 melanoma, 3.05 µM. The GI50 was 14.6 µM in the assay with NCI-H460 lung, 11 µM in the assay on SNB-75 CNS and 2.97 µM in the assay on UO-31 renal. In addition, the TGI in the assay on A549 NSCLC is 41.9 µM; in the assay on CCRF-CEM leukemia it was 13.8 µM; in the assay with HCT-116 colon it was 9.33 µM; in the assay with IGROV1 ovarian it was 31.3 µM; in the assay on K-562 leukemia, > 100 µM; in the assay with M14 melanoma, 10.1 µM. Besides, the TGI was 30.1 µM in the assay with NCI-H460 lung, 23.6 µM in the assay on SNB-75 CNS and 10.2 µM with UO-31 renal.
